Results: paper PMC7413254 (Nature Communications, 2020)
Like-named read-outs stand apart in the source and are kept apart here.

Key:
non-expressing oocytes [1] = assay: cells; assay type: cell-based, Xenopus laevis; details: Xenopus laevis, total [3H]CQ transport; for inhibition at 500 µM: [test solute] = 0.5 mM; for inhibition at 1000 µM: [test solute] = 1 mM; for inhibition at 2000 µM: [test solute] = 2 mM
Summary of the method: (§1)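 Each treatment used ten oocytes, repeated in at least four experiments on different days with oocytes from different frogs. Conditions: ND96 pH 5.5, 27.5 °C, 1.5 h; read-out by scintillation counting.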

PfCRT^3D7 [2] = biological target: T1, PfCRT^3D7 (Plasmodium falciparum, UniProt Q8IBZ9); assay: cell-based; assay type: cell-based; details: total [3H]CQ transport; for inhibition at 500 µM: [test solute] = 0.5 mM; for inhibition at 1000 µM: [test solute] = 1 mM; for inhibition at 2000 µM: [test solute] = 2 mM
Summary of the method: as §1

PfCRT^Dd2 [3] = biological target: T2, PfCRT^Dd2 (Plasmodium falciparum, UniProt Q9N623, A220S/I356T/K76T/M74I/N326S/N75E/Q271E/R371I); assay: [3H]CQ uptake into Xenopus oocytes, cis-inhibition by unlabelled solute; assay type: cell-based
Summary of the method: as §1

PfCRT^Ecu1110 [4] = biological target: T3, PfCRT^Ecu1110 (Plasmodium falciparum, UniProt Q9N623, A220S/I356L/K76T/N326D); assay: as above; assay type: cell-based
Summary of the method: as §1

non-expressing oocytes [5] = assay type: cell-based, Xenopus laevis; details: total [3H]CQ transport; for Uptake of [3H]CQ (% non-expressing oocyte control), trans-stimulation: non-expressing oocytes, normalised to the oocyte type control; for Uptake of [3H]CQ (% PfCRTDd2 control), trans-stimulation, non-expressing oocytes: mean ± SEM, SEM
Summary of the method: (§2)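 Oocytes (ten per treatment, ≥4 independent frogs/days) were preloaded by injecting VF-6 in 25 nL ND96 at pH 5.0, 5.5, 6.0 or 7.0, or Na^+-free choline buffer, then uptake run 1.5 h, 27.5 °C, ND96 pH 5.5 by default. Internal concentrations assumed ~400 nL oocyte volume.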

PfCRT^3D7 [6] = biological target: T1, PfCRT^3D7; assay: cell-based; assay type: cell-based
Summary of the method: as §2

PfCRT^Dd2 [7] = biological target: T2, PfCRT^Dd2; assay: cell-based; assay type: cell-based; details: […]; for activity at 45000 µM: [test solute]i = 45 mM (30 mM for some solutes due to solubility)
Summary of the method: as §2

PfCRT^Ecu1110 [8] = biological target: T3, PfCRT^Ecu1110; assay: cell-based; assay type: cell-based; details: […]
Summary of the method: as §2

PfNT1 = biological target: T4, PfNT1 (Plasmodium falciparum, UniProt Q8IDM6); assay: cell-based; assay type: cell-based; details: for activity at 5000 µM: total [3H]CQ transport
T4 construct: expressed in transfected cells; host or cells: Xenopus laevis oocytes (stage V-VI), cRNA-injected
Summary of the method: as §2

PfCRT [9] = assay: Test of solutes as potential co-substrates for influx of VF-6 via PfCRT into the oocyte; assay type: cell-based, Plasmodium falciparum; design: key: X: Compounds that have been tested as potential co-substrates but are not required for influx of VF-6 via PfCRT into the oocyte; details: X = tested
PfCRT [10] = assay: Potential co-substrates tested for influx of VF-6 via PfCRT into the oocyte; assay type: cell-based, Plasmodium falciparum; design: key: X: Compounds that have been tested as potential co-substrates but are not required for influx of VF-6 via PfCRT into the oocyte
[11] = Oocyte, mean ± SEM, SEM, read-out: Uptake of [3H]CQ (% PfCRTDd2 control), cis-inhibition, non-expressing oocytes
[12] = non-expressing oocytes, normalised to the oocyte type control, read-out: Uptake of [3H]CQ (% non-expressing oocyte control), cis-inhibition
[13] = PfCRT3D7 oocytes, normalised to the oocyte type control, read-out: Uptake of [3H]CQ (% PfCRT3D7 control), cis-inhibition
[14] = mean ± SEM, SEM, read-out: Uptake of [3H]CQ (% PfCRTDd2 control), cis-inhibition, PfCRT3D7
[15] = read-out: PfCRT-mediated [3H]CQ transport, cis-inhibition (% PfCRTDd2 control)
[16] = read-out: Uptake of [3H]CQ (% PfCRTDd2 control), cis-inhibition, PfCRTDd2, SEM
[17] = read-out: PfCRT-mediated [3H]CQ transport, cis-inhibition (% PfCRTEcu1110 control)
[18] = read-out: Uptake of [3H]CQ (% PfCRTDd2 control), cis-inhibition, PfCRTEcu1110, SEM
[19] = read-out: Uptake of [3H]CQ (% PfCRTEcu1110 control), cis-inhibition
[20] = read-out: [3H]CQ transport (% PfCRTEcu1110 control), cis-inhibition, PfCRTEcu1110, SEM

T3 sequence (Q9N623 whole entry A220S/I356L/K76T/N326D): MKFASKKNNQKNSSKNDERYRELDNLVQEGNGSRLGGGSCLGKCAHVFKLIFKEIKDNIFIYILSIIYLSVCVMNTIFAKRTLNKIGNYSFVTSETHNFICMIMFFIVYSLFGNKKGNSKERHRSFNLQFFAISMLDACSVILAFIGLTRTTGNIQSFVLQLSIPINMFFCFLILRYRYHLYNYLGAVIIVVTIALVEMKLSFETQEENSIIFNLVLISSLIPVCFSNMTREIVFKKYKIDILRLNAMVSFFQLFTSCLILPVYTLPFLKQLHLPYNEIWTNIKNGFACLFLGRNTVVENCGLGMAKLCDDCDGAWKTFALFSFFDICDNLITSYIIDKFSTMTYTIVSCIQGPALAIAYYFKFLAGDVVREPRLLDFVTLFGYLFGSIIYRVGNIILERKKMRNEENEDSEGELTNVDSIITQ
T1 sequence (Q8IBZ9 59-398): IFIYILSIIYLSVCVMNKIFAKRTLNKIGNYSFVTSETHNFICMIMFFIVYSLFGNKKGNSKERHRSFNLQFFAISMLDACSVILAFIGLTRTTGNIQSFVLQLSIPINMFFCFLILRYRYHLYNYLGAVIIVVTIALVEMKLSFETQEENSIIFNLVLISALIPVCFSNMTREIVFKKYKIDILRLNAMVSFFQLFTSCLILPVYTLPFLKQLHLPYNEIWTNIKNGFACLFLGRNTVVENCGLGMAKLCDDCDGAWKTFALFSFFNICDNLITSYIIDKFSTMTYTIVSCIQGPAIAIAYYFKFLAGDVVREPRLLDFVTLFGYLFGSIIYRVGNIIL
T2 sequence (Q9N623 whole entry A220S/I356T/K76T/M74I/N326S/N75E/Q271E/R371I): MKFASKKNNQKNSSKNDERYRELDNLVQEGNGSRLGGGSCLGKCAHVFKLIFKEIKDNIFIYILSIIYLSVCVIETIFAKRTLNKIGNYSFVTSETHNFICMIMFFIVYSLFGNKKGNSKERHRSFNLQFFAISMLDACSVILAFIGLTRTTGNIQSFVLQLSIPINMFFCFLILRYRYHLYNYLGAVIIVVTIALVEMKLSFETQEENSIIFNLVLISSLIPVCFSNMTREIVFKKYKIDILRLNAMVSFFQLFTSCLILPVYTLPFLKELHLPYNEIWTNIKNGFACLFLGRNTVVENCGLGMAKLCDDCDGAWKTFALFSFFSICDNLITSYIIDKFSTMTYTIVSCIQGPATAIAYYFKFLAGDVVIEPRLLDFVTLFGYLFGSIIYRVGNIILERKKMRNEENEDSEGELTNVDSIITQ
T4 sequence (Q8IDM6 whole entry): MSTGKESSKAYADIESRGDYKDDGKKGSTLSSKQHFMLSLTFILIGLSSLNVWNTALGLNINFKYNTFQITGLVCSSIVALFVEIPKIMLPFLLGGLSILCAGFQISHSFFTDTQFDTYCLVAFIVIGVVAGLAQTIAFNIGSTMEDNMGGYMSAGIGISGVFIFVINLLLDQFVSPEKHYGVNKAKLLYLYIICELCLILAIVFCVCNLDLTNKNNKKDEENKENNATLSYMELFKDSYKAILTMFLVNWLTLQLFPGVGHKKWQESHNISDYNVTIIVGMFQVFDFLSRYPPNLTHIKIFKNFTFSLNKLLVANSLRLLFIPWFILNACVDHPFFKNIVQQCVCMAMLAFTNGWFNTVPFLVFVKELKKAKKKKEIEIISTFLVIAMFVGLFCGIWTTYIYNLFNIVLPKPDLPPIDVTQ

C[C@@H](O)[C@H](N)C(=O)O [L-threonine]
inhibition at 500 µM (non-expressing oocytes [1]; [11]): 2.2 ± 0.04%
inhibition at 1000 µM (non-expressing oocytes [1]; [11]): 3.8 ± 0.08%
inhibition at 2000 µM (non-expressing oocytes [1]; [11]): 2.8 ± 0.02%
inhibition at 500 µM (non-expressing oocytes [1]; [12]): 95 ± 5.4%
inhibition at 1000 µM (non-expressing oocytes [1]; [12]): 98 ± 3.6%
inhibition at 2000 µM (non-expressing oocytes [1]; [12]): 100 ± 3.6%
inhibition at 500 µM (PfCRT^3D7 [2]; [13]): 100 ± 4.7%
inhibition at 1000 µM (PfCRT^3D7 [2]; [13]): 100 ± 5.3%
inhibition at 2000 µM (PfCRT^3D7 [2]; [13]): 99 ± 5.3%
inhibition at 500 µM (PfCRT^3D7 [2]; [14]): 2.9 ± 0.03%
inhibition at 1000 µM (PfCRT^3D7 [2]; [14]): 2.8 ± 0.07%
inhibition at 2000 µM (PfCRT^3D7 [2]; [14]): 3.3 ± 0.03%
inhibition at 500 µM (PfCRT^Dd2 [3]; [15]): 95 ± 3.6%
inhibition at 2000 µM (PfCRT^Dd2 [3]; [15]): 92 ± 5.6%
inhibition at 500 µM (PfCRT^Dd2 [3]; [16]): 97 ± 2.5%
inhibition at 1000 µM (PfCRT^Dd2 [3]; [16]): 96 ± 3.6%
inhibition at 2000 µM (PfCRT^Dd2 [3]; [16]): 94 ± 3.2%
inhibition at 500 µM (PfCRT^Ecu1110 [4]; [17]): 94 ± 1.1%
inhibition at 1000 µM (PfCRT^Ecu1110 [4]; [17]): 95 ± 1.3%
inhibition at 2000 µM (PfCRT^Ecu1110 [4]; [17]): 94 ± 3.7%
inhibition at 500 µM (PfCRT^Ecu1110 [4]; [18]): 31 ± 1.1%
inhibition at 1000 µM (PfCRT^Ecu1110 [4]; [18]): 32 ± 1.9%
inhibition at 2000 µM (PfCRT^Ecu1110 [4]; [18]): 31 ± 1.3%
inhibition at 500 µM (PfCRT^Ecu1110 [4]; [19]): 96 ± 3.1%
inhibition at 1000 µM (PfCRT^Ecu1110 [4]; [19]): 98 ± 2.4%
inhibition at 2000 µM (PfCRT^Ecu1110 [4]; [19]): 96 ± 2.2%
inhibition at 500 µM (PfCRT^Ecu1110 [4]; [20]): 28 ± 0.6%
inhibition at 1000 µM (PfCRT^Ecu1110 [4]; [20]): 29 ± 0.8%
inhibition at 2000 µM (PfCRT^Ecu1110 [4]; [20]): 28 ± 1.5%
Uptake of [3H]CQ (% non-expressing oocyte control), trans-stimulation (non-expressing oocytes [5]; [test solute]i = 5 mM): 101 ± 3.2 % non-expressing oocyte control
Uptake of [3H]CQ (% non-expressing oocyte control), trans-stimulation (non-expressing oocytes [5]; [test solute]i = 45 mM (30 mM for some solutes due to solubility)): 99 ± 2.4 % non-expressing oocyte control
Uptake of [3H]CQ (% PfCRTDd2 control), trans-stimulation, non-expressing oocytes (non-expressing oocytes [5]; [test solute]i = 5 mM (intracellular)): 2.4 ± 0.08 % PfCRTDd2 control
Uptake of [3H]CQ (% PfCRTDd2 control), trans-stimulation, non-expressing oocytes (non-expressing oocytes [5]; [test solute]i = 45 mM (intracellular; 30 mM for some solutes due to solubility)): 2.8 ± 0.02 % PfCRTDd2 control
activity at 5000 µM (PfCRT^3D7 [6]; PfCRT3D7 oocytes, [test solute]i = 5 mM, total [3H]CQ transport, normalised to the oocyte type control, read-out: Uptake of [3H]CQ (% PfCRT3D7 control), trans-stimulation): 99 ± 4.2%
[3H]CQ transport (% PfCRT3D7 control), trans-stimulation, PfCRT3D7 (PfCRT^3D7 [6]; SEM): 0.3 ± 0.01 % PfCRT3D7 control
activity at 5000 µM (PfCRT^3D7 [6]; [test solute]i = 5 mM (intracellular), PfCRT3D7 oocytes, normalised to oocyte type control, read-out: PfCRT-mediated [3H]CQ transport, trans-stimulation (% PfCRT3D7 control)): 97 ± 2.9%
activity at 45000 µM (PfCRT^3D7 [6]; SEM, read-out: Uptake of [3H]CQ (% PfCRTDd2 control), trans-stimulation, PfCRT3D7): 3.3 ± 0.02%
activity at 45000 µM (PfCRT^3D7 [6]; read-out: PfCRT-mediated [3H]CQ transport, trans-stimulation (% PfCRT3D7 control)): 96 ± 3.1%
activity at 45000 µM (PfCRT^3D7 [6]; read-out: Uptake of [3H]CQ (% PfCRT3D7 control), trans-stimulation): 98 ± 2.8%
activity at 5000 µM (PfCRT^3D7 [6]; total [3H]CQ transport, [test solute]i = 5 mM (intracellular), mean ± SEM, SEM, read-out: Uptake of [3H]CQ (% PfCRTDd2 control), trans-stimulation, PfCRT3D7): 3.3 ± 0.1%
activity at 5000 µM (PfCRT^Dd2 [7]; pH 5.5, read-out: PfCRT-mediated [3H]CQ transport, trans-stimulation (% PfCRTDd2 control), [test solute]i = 5 mM (intracellular), PfCRTDd2 oocytes, normalised to oocyte type control): 96 ± 3.2%
activity at 5000 µM (PfCRT^Dd2 [7]; pH 5.5, read-out: Uptake of [3H]CQ (% PfCRTDd2 control), trans-stimulation, PfCRTDd2, total [3H]CQ transport, [test solute]i = 5 mM (intracellular), mean ± SEM, SEM): 98 ± 3.2%
activity at 5000 µM (PfCRT^Dd2 [7]; pH 5.5, read-out: Uptake of [3H]CQ (% PfCRTDd2 control), trans-stimulation, PfCRTDd2 oocytes, [test solute]i = 5 mM, total [3H]CQ transport, normalised to the oocyte type control): 98 ± 3.2%
activity at 45000 µM (PfCRT^Dd2 [7]; pH 5.5, read-out: Uptake of [3H]CQ (% PfCRTDd2 control), trans-stimulation, PfCRTDd2 oocytes, total [3H]CQ transport, normalised to the oocyte type control): 99 ± 3.2%
activity at 5000 µM (PfCRT^Dd2 [7]; pH 5.5, read-out: [3H]CQ transport (% PfCRTDd2 control), trans-stimulation, PfCRTDd2, trans-stimulation, [test solute]i = 5 mM (injected), PfCRT-mediated component (background subtracted), mean ± SEM, SEM): 96 ± 3.2%
activity at 45000 µM (PfCRT^Dd2 [7]; pH 5.5, read-out: [3H]CQ transport (% PfCRTDd2 control), trans-stimulation, PfCRTDd2, trans-stimulation, PfCRT-mediated component (background subtracted), mean ± SEM, SEM): 97 ± 3.9%
activity at 5000 µM (PfCRT^Ecu1110 [8]; pH 5.5, read-out: PfCRT-mediated [3H]CQ transport, trans-stimulation (% PfCRTEcu1110 control), [test solute]i = 5 mM (intracellular), PfCRTEcu1110 oocytes, normalised to oocyte type control): 99 ± 3.4%
activity at 5000 µM (PfCRT^Ecu1110 [8]; pH 5.5, read-out: Uptake of [3H]CQ (% PfCRTEcu1110 control), trans-stimulation, PfCRTEcu1110 oocytes, [test solute]i = 5 mM, total [3H]CQ transport, normalised to the oocyte type control): 101 ± 2.5%
activity at 45000 µM (PfCRT^Ecu1110 [8]; pH 5.5, read-out: Uptake of [3H]CQ (% PfCRTEcu1110 control), trans-stimulation, PfCRTEcu1110 oocytes, [test solute]i = 45 mM (30 mM for some solutes due to solubility), total [3H]CQ transport, normalised to the oocyte type control): 99 ± 2%
activity at 5000 µM (PfCRT^Ecu1110 [8]; read-out: Uptake of [3H]CQ (% PfCRTDd2 control), trans-stimulation, PfCRTEcu1110, total [3H]CQ transport, [test solute]i = 5 mM (intracellular), mean ± SEM, SEM): 36 ± 1.9%
activity at 45000 µM (PfCRT^Ecu1110 [8]; read-out: Uptake of [3H]CQ (% PfCRTDd2 control), trans-stimulation, PfCRTEcu1110, total [3H]CQ transport, [test solute]i = 45 mM (intracellular; 30 mM for some solutes due to solubility), mean ± SEM, SEM): 35 ± 1.3%
activity at 5000 µM (PfNT1; PfNT1 oocytes, [test solute]i = 5 mM, normalised to the oocyte type control, read-out: Uptake of [3H]CQ (% PfNT1 control), trans-stimulation): 99 ± 3.5%
activity at 45000 µM (PfNT1; SEM, read-out: Uptake of [3H]CQ (% PfCRTDd2 control), trans-stimulation, PfNT1): 2.6 ± 0.08%
activity at 45000 µM (PfNT1; read-out: Uptake of [3H]CQ (% PfNT1 control), trans-stimulation): 100 ± 2.6%
activity at 5000 µM (PfNT1; [test solute]i = 5 mM (intracellular), mean ± SEM, SEM, read-out: Uptake of [3H]CQ (% PfCRTDd2 control), trans-stimulation, PfNT1): 2.8 ± 0.05%
Tested as potential co-substrate but not required for influx of VF-6 via PfCRT into the oocyte (PfCRT [9]): X
Tested as potential co-substrate but not required for influx of VF-6 via PfCRT into the oocyte (PfCRT [10]): X
